In publication PMC6981392, “Characterization of a Maltase from an Early-Diverged Non-Conventional Yeast Blastobotrys adeninivorans” (International Journal of Molecular Sciences, 2019):
“Also recorded” adds a separate entry of the source. Where two headings read alike, the source gives them in different places.

Assays:
B. adeninivorans = experiment: Growth of B. adeninivorans on sugars (OD 600 nm); assay type: cell-based, Blastobotrys adeninivorans; conditions: YNB medium, 2 g/L sugar, 24 h, 37 °C
Experimental: Blastobotrys (Arxula) adeninivorans LS3 (CBS 8244) was kindly provided by Assoc. Prof. V. Passoth (SLU, Uppsala, Sweden). The yeast strain was grown on solid YPD medium (20 g/L peptone, 20 g/L glucose, 10 g/L yeast extract, 20 g/L agar) at 30 °C 24 h for harvesting the cells for genomic DNA extraction. E. coli DH5α (Thermo Fisher Scientific, Waltham, MA, USA) was used for DNA cloning and plasmid production. E. coli BL21 (DE3) was used for heterologous expression of BaAG2. The ability of B. adeninivorans to grow on sugars was assayed as in [12]. Yeast cells grown overnight on BD Difco YNB medium (Thermo Fisher Scientific, Waltham, MA, USA) without amino acids containing 2 g/L glucose were used as inoculum. […] The cells were incubated on Greiner 96-well flat-bottom transparent polystyrene microplates (Greiner Bio-One, Frickenhausen, Germany) in 200 µl under agitation for 24 h at 37 °C. Optical density of the culture at 600 nm was measured against inoculated medium without sugar at the beginning and end of the experiment using an Infinite M200 PRO microplate reader (Tecan Group Ltd., Männedorf, Switzerland) equipped with Tecan i-control v. 1.7 software from the same provider. Two independent experiments with two parallel measurements were conducted.

BaAG2 [1] = molecular target: T1, BaAG2 (Blastobotrys adeninivorans, UniProt Z9CO09ION3); experiment: Substrate specificity of BaAG2 on 100 mM sugars and 1 mM pNPG; assay type: biochemical; conditions: 100 mM sugars, pH 6.5, 30 °C
T1 sequence (Z9CO09ION3 1-580): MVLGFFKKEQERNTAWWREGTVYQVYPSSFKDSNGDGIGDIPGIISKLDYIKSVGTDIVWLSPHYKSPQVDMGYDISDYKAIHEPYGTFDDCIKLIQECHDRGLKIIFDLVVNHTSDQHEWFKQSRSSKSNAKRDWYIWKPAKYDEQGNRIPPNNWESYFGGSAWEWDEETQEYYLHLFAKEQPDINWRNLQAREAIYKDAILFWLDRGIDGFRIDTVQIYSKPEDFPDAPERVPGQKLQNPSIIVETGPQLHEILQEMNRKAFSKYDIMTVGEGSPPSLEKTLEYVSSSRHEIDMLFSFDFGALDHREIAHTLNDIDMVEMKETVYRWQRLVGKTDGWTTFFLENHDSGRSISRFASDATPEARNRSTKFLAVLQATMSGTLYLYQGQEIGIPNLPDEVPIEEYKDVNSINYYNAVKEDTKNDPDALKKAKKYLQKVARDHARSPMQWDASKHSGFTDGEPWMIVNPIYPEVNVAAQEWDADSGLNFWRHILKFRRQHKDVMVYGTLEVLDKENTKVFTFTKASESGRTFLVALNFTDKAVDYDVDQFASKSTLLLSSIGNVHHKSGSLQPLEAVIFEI
Experimental: Hydrolysis of pNPG was assayed as in [16, 40] according to the release of p-nitrophenol. 100 mM K-phosphate buffer (pH 6.5) was used and reactions were conducted at 30 °C if not stated otherwise. The purified enzyme was unstable if diluted therefore 5 g/L bovine serum albumin (BSA) was added to the dilution buffer as a protein stabilizer to retain its full catalytic activity. […] The content of the released glucose was determined spectrophotometrically as in [16, 47]. The activities (µmoles of glucose released per minute per mg of protein; U/mg) were calculated from initial velocities of the reaction. For kinetic analysis, initial rates of p-nitrophenol or glucose release from substrates were measured at four to seven concentrations ranging from 0.1–3.0 mM for pNPG and 2.5–250 mM for di- and trisaccharides. At least three independent measurements for each substrate and concentration were made. BaAG2 content in reaction mixtures ranged from 0.02 to 3.5 µg/mL. […] The theoretical Mw value of 67,901 Da for the kcat calculation was computed in ExPASy Proteomics Server (http://expasy.org).

BaAG2 [2] = molecular target: T1, BaAG2; experiment: TLC assay of panose hydrolysis by BaAG2; conditions: 50 mM panose, extended (22 h) reaction time
Experimental: The reaction samples were analyzed using TLC.
To visualize hydrolysis and polymerization products, the TLC analysis was conducted as in [16] on Silica Gel 60 F254 plates with concentrating zone (Merck, Darmstadt, Germany). 0.5 µl of the stopped reaction mixture were spotted onto the plate and sugars were separated with two runs in chloroform:acetic acid:water (6:7:1, v:v:v) [67]. For the analysis of products of polysaccharide degradation, 3 µl of the reaction mixtures were spotted. Sugars were visualized by immersion of the plates in aniline-diphenylamine reagent and subsequent heating of the dried plates at 100 °C [68].

BaAG2 [3] = molecular target: T1, BaAG2; experiment: Degradation of glucose polymers by BaAG2 (glucose release, TLC); assay type: biochemical; conditions: polysaccharide 5 g/L, 20 µg/mL enzyme
Experimental: Polysaccharide concentration in the reaction mixture was 5 g/L, and 20 µg/mL of the enzyme was used. At desired time points (2 h, 24 h, 74/96 h) aliquots were withdrawn and heated to stop the reaction. A negative control containing 20 µg/mL BSA instead of the enzyme was incubated alongside. Concentration of released glucose was measured as described above and 3 µl of the samples were analysed on TLC. Maltase from S. cerevisiae (ScMAL62), amyloglycosidase from Aspergillus niger (Sigma-Aldrich, Merck, Darmstadt, Germany) and α-amylase from Aspergillus oryzae (Sigma-Aldrich, Merck, Darmstadt, Germany) were reacted with tested glucose polymers for comparison.

BaAG2 [4] = molecular target: T1, BaAG2; experiment: Kinetics of hydrolysis of pNPG and sugars by BaAG2; conditions: for Km: read-out: Km ± SD; for Km / Vmax ± SD / kcat ± SD: substrate hydrolysis, pH 6.5, 30 °C; for kcat ± SD: calculated from Vmax with Mw 67,901 Da
Experimental: (§1) 100 mM K-phosphate buffer (pH 6.5) was used and reactions were conducted at 30 °C if not stated otherwise. The purified enzyme was unstable if diluted therefore 5 g/L bovine serum albumin (BSA) was added to the dilution buffer as a protein stabilizer to retain its full catalytic activity. […] The content of the released glucose was determined spectrophotometrically as in [16, 47]. The activities (µmoles of glucose released per minute per mg of protein; U/mg) were calculated from initial velocities of the reaction. […] At least three independent measurements for each substrate and concentration were made.

[5] = tested on: α-glucosidase of A. niger; design: method as in doi:10.1271/bbb1961.55.2327; conditions: on maltose; cited from earlier work
[6] = tested on: B. adeninivorans CBS 8244; design: method as in earlier work; conditions: CBS-KNAW culture collection; cited from earlier work
[7] = tested on: extracellular α-glucosidase of Schizosaccharomyces pombe; conditions: on maltose; cited from earlier work
BaAG2 [8] = molecular target: T1, BaAG2; experiment: Inhibition of pNPG hydrolysis by BaAG2
Experimental: as §1
The Ki values were calculated using enzyme kinetics module of the SigmaPlot (Systat Software, San Jose, CA, USA).

BaAG2 [9] = molecular target: T1, BaAG2; experiment: Differential scanning fluorimetry (DSF) thermostability of BaAG2 with ligands; assay type: binding; conditions: 2 µM BaAG2, unliganded Tm 51 °C; 100 mM fructose, 50 mM palatinose, 50 mM glucose, 5 mM Tris, 5 mM acarbose; HEPES pH 7.0
Experimental: The reaction was conducted in 50 mM 4-(2-hydroxyethyl)-1-piperazineethanesulfonic acid) (HEPES) buffer (pH 7.0) with 150 mM NaCl. […] At least two independent experiments were performed with two technical replicates.

Compound: Maltotriose
- growth of B. adeninivorans on sugar (B. adeninivorans): new growth substrates
- hydrolysis by BaAG2 (BaAG2 [1]): could hydrolyze

Compound: OC[C@H]1O[C@H](OC[C@H]2O[C@H](O[C@H]3[C@H](O)[C@@H](O)C(O)O[C@@H]3CO)[C@H](O)[C@@H](O)[C@@H]2O)[C@H](O)[C@@H](O)[C@@H]1O (stereo partly drawn) [panose, α-D-Glc-(1→6)-α-D-Glc-(1→4)-D-Glc]
- hydrolysis by BaAG2 (BaAG2 [2]): not hydrolyzed

Compound: amylopectin
- glucose released (BaAG2 [3]; by 24 h): 0.1 g/L
- glucose released (BaAG2 [3]; by 72 h): 0.3 g/L

Compound: O=C(CO)[C@@H](O[C@H]1O[C@H](CO)[C@@H](O)[C@H](O)[C@H]1O)[C@H](O)[C@H](O)CO [Turanose]
- growth of B. adeninivorans on sugar (B. adeninivorans): new growth substrates
- Km (BaAG2 [4]): 45.2 ± 6 mM
- Vmax ± SD (BaAG2 [4]): 190.1 ± 10.4 µmol/mg/min
- kcat ± SD (BaAG2 [4]): 215.1 ± 11.9 s⁻¹
- hydrolysis by BaAG2 (BaAG2 [1]): could hydrolyze

Compound: Maltulose
- growth of B. adeninivorans on sugar (B. adeninivorans): new growth substrates
- Km (BaAG2 [4]): 7.8 ± 1 mM
- Vmax ± SD (BaAG2 [4]): 52.2 ± 1.8 µmol/mg/min
- kcat ± SD (BaAG2 [4]): 59.1 ± 2.1 s⁻¹
- hydrolysis by BaAG2 (BaAG2 [1]): could hydrolyze

Compound: OC[C@H]1O[C@H](O[C@H]2[C@H](O)[C@@H](O)C(O)O[C@@H]2CO)[C@H](O)[C@@H](O)[C@@H]1O (mixture of isomers) [Maltose]
- Catalytic constant (kcat) [5]: 144 s⁻¹
- assimilation by B. adeninivorans CBS 8244 [6]: assimilates
- hydrolysis by BaAG2 (BaAG2 [1]): could hydrolyze
- kcat [7]: 709 s⁻¹

Compound: O=[N+]([O-])c1ccc(O[C@@H]2O[C@H](CO)[C@H](O)[C@H](O)[C@H]2O)cc1 [pNPG, p-nitrophenyl-α-D-glucopyranoside, reference compound]
- Vmax (BaAG2 [4]): over 750 U/mg
- Km (BaAG2 [4]): 0.76 ± 0.03 mM
- Vmax ± SD (BaAG2 [4]): 751.3 ± 14.5 µmol/mg/min
- kcat ± SD (BaAG2 [4]): 850.2 ± 16.4 s⁻¹
- hydrolysis by BaAG2 (BaAG2 [1]): could hydrolyze

Compound: O=C(CO)[C@@H](O)[C@H](O)[C@H](O)CO [Fructose]
- Inhibition Mode (BaAG2 [8]): Competitive

Compound: OC[C@H]1O[C@@](CO)(O[C@H]2O[C@H](CO)[C@@H](O)[C@H](O)[C@H]2O)[C@@H](O)[C@@H]1O [Sucrose, α-D-Glc-(1→2)-β-D-Fru]
- assimilation by B. adeninivorans CBS 8244 [6]: assimilates
- hydrolysis by BaAG2 (BaAG2 [1]): could hydrolyze

Compound: C[C@H]1O[C@H](O[C@H]2[C@H](O)[C@@H](O)[C@@H](O[C@H]3[C@H](O)[C@@H](O)C(O)O[C@@H]3CO)O[C@@H]2CO)[C@H](O)[C@@H](O)[C@@H]1N[C@H]1C=C(CO)[C@@H](O)[C@H](O)[C@H]1O (stereo partly shown) [Acarbose, reference compound]
- Ki (BaAG2 [8]; read-out: Ki ± SD, values marked * are given in µM, pH 6.5, 30 °C): 0.83 ± 0.01 µM
- Ki (BaAG2 [8]; read-out: Ki ± SD, values marked * are given in µM, pH 6.5, 30 °C, listed as acarbose): 0.8 µM

Compound: OC[C@H]1OC(O)[C@H](O)[C@@H](O)[C@@H]1O (stereo partly shown) [Glucose]
- Inhibition Mode (BaAG2 [8]): Competitive
- increase of Tm in the presence of a ligand (BaAG2 [9]): 4.4 °C

Compound: OC[C@H]1O[C@H](OC[C@H]2OC(O)[C@H](O)[C@@H](O)[C@@H]2O)[C@H](O)[C@@H](O)[C@@H]1O (stereo partly shown) [Isomaltose]
- Inhibition Mode (BaAG2 [8]): Competitive
- growth of B. adeninivorans on sugar (B. adeninivorans): new growth substrates
- hydrolysis by BaAG2 (BaAG2 [1]): not hydrolyzed
- hydrolysis by BaAG2 (BaAG2 [1]; listed as isomaltose): could not hydrolyze

Compound: OC[C@H]1O[C@H](O[C@H]2O[C@H](CO)[C@@H](O)[C@H](O)[C@H]2O)[C@H](O)[C@@H](O)[C@@H]1O [trehalose]
- assimilation by B. adeninivorans CBS 8244 [6]: assimilates

Compound: CO[C@H]1O[C@H](CO)[C@@H](O)[C@H](O)[C@H]1O [α-MG, α-methylglucoside, reference compound]
- Inhibition Mode (BaAG2 [8]): Competitive
- assimilation by B. adeninivorans CBS 8244 [6]: assimilates
- hydrolysis by BaAG2 (BaAG2 [1]): could not hydrolyze
- hydrolysis by BaAG2 (BaAG2 [1]; listed as α-methylglucoside): not hydrolyzed

Compound: OC[C@H]1O[C@H](OC[C@H]2OC(O)(CO)[C@@H](O)[C@@H]2O)[C@H](O)[C@@H](O)[C@@H]1O (stereo partly shown) [Palatinose]
- growth of B. adeninivorans on sugar (B. adeninivorans): new growth substrates
- hydrolysis by BaAG2 (BaAG2 [1]): not hydrolyzed; also recorded: could not hydrolyze

Compound: OC[C@H]1O[C@@](CO)(O[C@H]2O[C@H](CO)[C@@H](O)[C@H](O)[C@H]2O)[C@@H](O[C@H]2O[C@H](CO)[C@@H](O)[C@H](O)[C@H]2O)[C@@H]1O [Melezitose]
- assimilation by B. adeninivorans CBS 8244 [6]: assimilates
- Vmax ± SD (BaAG2 [4]): 231.0 ± 31.8 µmol/mg/min
- kcat ± SD (BaAG2 [4]): 261.4 ± 36.1 s⁻¹
- hydrolysis by BaAG2 (BaAG2 [1]): could hydrolyze
